Experimental findings from ChEMBL document CHEMBL1132550, “Modeling of amino-terminal domains of group I metabotropic glutamate receptors: structural motifs affecting ligand selectivity” (J Med Chem, 1999) are described below.

SMILES strings stand for the structures. Some results are limits rather than exact numbers.

Assay [1] concerns the target Metabotropic glutamate receptor 5 (Homo sapiens, UniProt P41594). In words: Compound was tested for it's […] activity against Ser152 and Thr175 (Metabotropic glutamate receptor 5). Format: functional.
Assay [2] concerns the target Metabotropic glutamate receptor 1 (Homo sapiens, UniProt Q13255). In words: Compound was tested for its […] activity against Ser165 and Thr188 (Metabotropic glutamate receptor 1) receptor. Format: functional.

Metabotropic glutamate receptor 5, sequence (P41594 whole entry): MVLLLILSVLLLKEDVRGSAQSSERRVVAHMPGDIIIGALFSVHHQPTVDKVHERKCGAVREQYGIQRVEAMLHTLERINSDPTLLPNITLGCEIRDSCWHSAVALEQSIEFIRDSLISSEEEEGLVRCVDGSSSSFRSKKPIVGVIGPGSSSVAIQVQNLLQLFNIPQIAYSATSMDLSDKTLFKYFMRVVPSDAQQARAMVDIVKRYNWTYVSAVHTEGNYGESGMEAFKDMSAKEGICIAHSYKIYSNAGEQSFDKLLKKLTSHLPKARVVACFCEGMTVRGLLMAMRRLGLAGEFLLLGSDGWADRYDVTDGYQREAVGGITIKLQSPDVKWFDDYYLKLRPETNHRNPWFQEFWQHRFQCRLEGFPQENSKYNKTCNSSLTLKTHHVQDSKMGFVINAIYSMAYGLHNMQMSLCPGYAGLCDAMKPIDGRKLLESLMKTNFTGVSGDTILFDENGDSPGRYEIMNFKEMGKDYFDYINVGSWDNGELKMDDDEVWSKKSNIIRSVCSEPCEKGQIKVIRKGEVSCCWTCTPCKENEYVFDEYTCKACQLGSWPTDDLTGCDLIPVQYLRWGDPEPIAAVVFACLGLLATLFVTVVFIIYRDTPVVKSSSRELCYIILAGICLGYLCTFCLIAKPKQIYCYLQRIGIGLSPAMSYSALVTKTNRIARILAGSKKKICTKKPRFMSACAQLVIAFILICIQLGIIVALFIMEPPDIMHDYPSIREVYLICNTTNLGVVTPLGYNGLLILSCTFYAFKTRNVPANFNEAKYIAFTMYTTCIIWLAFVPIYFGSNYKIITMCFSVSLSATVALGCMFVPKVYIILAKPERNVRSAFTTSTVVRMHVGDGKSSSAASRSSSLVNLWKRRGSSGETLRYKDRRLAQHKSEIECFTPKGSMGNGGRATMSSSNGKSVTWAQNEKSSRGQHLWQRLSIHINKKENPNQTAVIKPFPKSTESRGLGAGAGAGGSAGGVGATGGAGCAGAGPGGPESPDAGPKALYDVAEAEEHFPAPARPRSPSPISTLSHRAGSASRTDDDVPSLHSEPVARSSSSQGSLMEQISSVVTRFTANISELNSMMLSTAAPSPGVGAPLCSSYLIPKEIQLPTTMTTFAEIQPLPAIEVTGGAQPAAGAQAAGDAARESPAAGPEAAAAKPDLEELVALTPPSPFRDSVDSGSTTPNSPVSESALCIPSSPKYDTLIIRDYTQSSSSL
Metabotropic glutamate receptor 1, sequence (Q13255 whole entry): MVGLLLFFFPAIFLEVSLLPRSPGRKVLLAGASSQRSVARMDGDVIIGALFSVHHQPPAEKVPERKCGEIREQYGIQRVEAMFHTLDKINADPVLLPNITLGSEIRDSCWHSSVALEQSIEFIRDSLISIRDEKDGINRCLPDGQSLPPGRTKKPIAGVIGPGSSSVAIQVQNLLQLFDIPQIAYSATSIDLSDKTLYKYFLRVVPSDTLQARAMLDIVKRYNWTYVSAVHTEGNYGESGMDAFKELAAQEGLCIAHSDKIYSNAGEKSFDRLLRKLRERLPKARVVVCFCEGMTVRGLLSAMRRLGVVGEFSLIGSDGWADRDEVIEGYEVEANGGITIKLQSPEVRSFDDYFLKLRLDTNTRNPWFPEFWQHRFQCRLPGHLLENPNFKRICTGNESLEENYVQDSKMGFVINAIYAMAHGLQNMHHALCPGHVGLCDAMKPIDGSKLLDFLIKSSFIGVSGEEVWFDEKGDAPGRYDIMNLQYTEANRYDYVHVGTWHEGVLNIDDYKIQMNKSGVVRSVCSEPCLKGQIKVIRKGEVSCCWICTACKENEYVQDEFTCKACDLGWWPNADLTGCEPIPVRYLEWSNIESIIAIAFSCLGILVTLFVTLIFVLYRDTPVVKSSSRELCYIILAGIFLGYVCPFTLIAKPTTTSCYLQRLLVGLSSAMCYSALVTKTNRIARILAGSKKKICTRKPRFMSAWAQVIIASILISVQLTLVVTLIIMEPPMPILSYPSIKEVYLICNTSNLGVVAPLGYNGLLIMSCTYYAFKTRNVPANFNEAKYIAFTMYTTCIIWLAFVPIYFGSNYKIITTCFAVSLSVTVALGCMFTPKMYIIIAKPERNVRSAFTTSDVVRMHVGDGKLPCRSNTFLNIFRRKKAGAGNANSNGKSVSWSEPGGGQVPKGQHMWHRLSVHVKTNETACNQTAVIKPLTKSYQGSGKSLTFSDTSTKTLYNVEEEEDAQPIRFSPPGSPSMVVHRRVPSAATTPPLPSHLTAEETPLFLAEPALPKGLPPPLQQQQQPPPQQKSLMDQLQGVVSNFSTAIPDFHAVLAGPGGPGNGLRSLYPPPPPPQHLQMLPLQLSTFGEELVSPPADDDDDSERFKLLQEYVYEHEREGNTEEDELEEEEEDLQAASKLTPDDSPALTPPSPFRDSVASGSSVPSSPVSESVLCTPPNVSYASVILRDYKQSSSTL

As usually defined, the EC50 is the concentration that produces a half-maximal response. For the compound `NC(C(=O)O)C12CC(C(=O)O)(C1)C2` (stereo not given), in assay [1], the concentration for a half-maximal effect (EC50) is 103 µM. In turn, `NC(C(=O)O)c1cc(O)ccc1Cl` (stereo not given) had an EC50 in assay [1] of 750 µM. The IC50 is the concentration needed to halve the response being measured. For the compound `N[C@]1(C(=O)O)CCc2cc(C(=O)O)ccc21`, the IC50 in assay [1] was above 1000 µM; in assay [2] it was 214 µM.

`N[C@H](C(=O)O)c1cc(O)cc(O)c1` yielded an EC50 in assay [2] of 6.6 µM. That is a single-digit micromolar value. In the case of `Cc1ccc(O)c(/N=N/c2ccccc2)n1`, the IC50 in assay [1] is 0.37 µM; in assay [2], above 100 µM. Consider `Cc1cccc(/C=C/c2ccccc2)n1`, for which the IC50 in assay [1] was 0.29 µM; in assay [2] it was above 100 µM.

With `Cc1cc(C(=O)O)ccc1[C@H](N)C(=O)O`, the IC50 in assay [1] was above 100 µM.
